Results: patent US6623735B1, “Vaccine containing a thiol protease” (priority 1992, dated 2003)
Starred links: 1 amine or outer side, 2 acyl side, 3 side chain; linkers in the order of their positions; H or OH if unused. Residues, ends and D or L forms follow the SMILES beside them. *: point of attachment. AMC = Cc1cc(=O)oc2cc(N*)ccc12; Suc = O=C(CCC(=O)[*:2])[*:1]; Tos = Cc1ccc(S(=O)(=O)*)cc1; Cbz = O=C(OCc1ccccc1)*; Boc = CC(C)(C)OC(=O)*; Bz = O=C(c1ccccc1)*

Key:
[1] = test system: IgG cleaving activity of the E/S products from NEJ flukes; assay: Inhibition of IgG cleaving activity of NEJ E/S products; format: biochemical, Fasciola hepatica; conditions: final concentration of 50 μM
Procedure: (§1) As IgG is involved in antibody-dependent cellular cytotoxicity against helminth parasites and since adult fluke Cathepsin-L1 cleaves mouse IgG2a [see above], the E/S products from NEJ, 3 week-old, 5 week-old and adult flukes were tested for antibody cleaving activity. E/S products from all F. hepatica stages examined were capable of cleaving the purified IgG at the hinge region of the heavy chain and thereby releasing the Fc portion from the antibody binding regions.

[2] = test system: IgG cleaving activity of the E/S products from adult flukes; assay: Inhibition of IgG cleaving activity of adult fluke E/S products; format: biochemical, Fasciola hepatica; conditions: final concentration of 50 μM
Procedure: as §1

NEJ = test system: NEJ; parameters: species or system Fasciola hepatica; conditions: added to NEJ in culture; data not shown
[3] = test system: antibody-mediated attachment of eosinophils to NEJ; assay: Eosinophil adherence to NEJ in vitro assay; format: cell-based, rat
Procedure: Twenty newly excysted juvenile F. hepatica were dispensed into 100 μl of rat eosinophil-rich suspension in microtitre wells. According to the experiment either 100 μl aliquots of immune serum or control serum were added with or without E/S products or purified Cathepsin L1. The cysteine proteinase inhibitor leupeptin was added in some experiments at a final concentration of 5 μg/ml. All dilutions were made in Roswell Park Memorial Institute 1640 with 4% heat inactivated fetal calf serum. At the end of the experiment juvenile flukes were carefully transferred to a microscope slide and examined microscopically at 40× and 100× magnifications. Individual flukes were examined and the number of bound eosinophils counted. Those NEJ with more than 20 cells attached were considered positive.
When rat eosinophil-rich cell populations were added to NEJ in the presence of immune rat serum (IRS obtained from female Wistar rats orally infected with 30 F. hepatica metacercariae; blood was taken after 5 weeks of infection; the sera obtained were pooled, aliquoted and stored at −20° C. until required; control serum was collected from uninfected rats), cell adherence was consistently high (>90% positive NEJ after 2 hours, FIG. 4, panel A; the scale along the base of the Figure represents percentage of positive NEJ as defined above; the 5 bars represent counts at 2 hour intervals). […]

F. hepatica cathepsin L1 = assay: Enzyme kinetic studies, cathepsin L1; format: biochemical, Fasciola hepatica; conditions: 0.1M glycine pH 7.0, 37° C.
Procedure: (§2) The kinetic constants of F. hepatica cathepsins L1 and L2 enzymes were determined for 11 different substrates: Z-Phe-Arg-AMC, Bz-Phe-Val-Arg-AMC, Suc-Leu-Leu-Val-Tyr-AMC, H-Leu-Val-Tyr-AMC, Tos-Gly-Pro-Lys-AMC, Tos-Gly-Pro-Arg-AMC, Boc-Val-Pro-Arg-AMC, Z-Arg-Arg-AMC, Z-Arg-AMC, Suc-Ala-Phe-Lys-AMC and Boc-Val-Leu-Lys-AMC. One mg of fluorogenic substrate was dissolved in 100 μl of dimethyl formamide. This stock solution was diluted in 0.1M glycine pH 7.0 to achieve the desired concentration of substrate. Each substrate concentration was in triplicate and the final assay volume was 1.0 ml. Included in the 1 ml aliquot was 20 μl of enzyme and 50 μl of 10 mM dithiothreitol. The samples were incubated at 37° C. for 30 min before stopping the reaction with the addition of 200 μl of 1.7 M acetic acid. The samples were assayed for released 7-amino-methyl-coumarin as above. The kinetic constants Vmax and Km were obtained by non-linear regression according to the method of Barrett et al (Biochem J. 201, p.189-198) except that 20 μl of cathepsin L2 was incubated with 20 μl of 1.0 μM-0.1 μM E-64 in a final volume of 80 μl 0.1M glycine pH 7.0 for 30 mins at 37° C. Twenty μl of 1/10 cathepsin L1 was incubated with 20 μl of 5 μM-0.5 μM E-64 in a final volume of 80 μl 0.1M glycine pH 7.0 for 30 min. at 37° C. All of the incubated sample was assayed for the fluorogenic substrate Z-Phe-Arg-AMC as above.

F. hepatica cathepsin L2 = assay: Enzyme kinetic studies, cathepsin L2; format: biochemical, Fasciola hepatica; conditions: 0.1M glycine pH 7.0, 37° C.
Procedure: as §2

[4] = test system: E/S products from mature F. hepatica; assay: Specific activity against fluorogenic substrates by E/S products, adult flukes; format: biochemical, Fasciola hepatica; conditions: E/S products of adult flukes; means of duplicate results
Procedure: (§3) Mature flukes were removed from the bile ducts of bovine livers obtained at an abbattoir. Immature parasites were obtained from the liver of male Wistar rats three and five weeks after infection with 20 metacercariae.
(§4) Newly excysted juvenile (NEJ), 3 week-old, 5 week-old and mature F. hepatica were maintained in vitro over a period of 3 days. The culture medium, removed daily, was then assayed for Cathepsin L-like activity using the fluorogenic substrate Z-phe-arg-AMC. Cathepsin L-like activity was present in the E/S products from all stages examined. Whilst the Cathepsin L-like activity increased on a daily basis in the NEJ E/S products, indicating an increase in its secretion with time, the activity of this proteinase in the EIS of all other stages decreased over the same time period. The proteinase activity in the E/S of each liver fluke stage was compared using three arginine-containing fluorogenic peptide substrates. These substrates were chosen on the basis of their affinity for lysosomal cathepsin enzymes; cathepsin L (Z-phe-arg-AMC), cathepsin B (Z-arg-arg-AMC) and cathepsin H (Z-arg-AMC). Significant activity was only detected using the Z-phe-arg-AMC substrate and similar results were obtained for all liver fluke stages examined (Table 2 below).

[5] = test system: E/S products from 3 week-old F. hepatica; assay: Specific activity against fluorogenic substrates by E/S products, 3 week-old flukes; format: biochemical, Fasciola hepatica; conditions: E/S products of 3 week-old flukes; means of duplicate results
Procedure: as §3, §4

[6] = test system: E/S products from 5 week-old F. hepatica; assay: Specific activity against fluorogenic substrates by E/S products, 5 week-old flukes; format: biochemical, Fasciola hepatica; conditions: E/S products of 5 week-old flukes; means of duplicate results
Procedure: as §3, §4

[7] = test system: E/S products from newly excysted juvenile (NEJ) F. hepatica; assay: Specific activity against fluorogenic substrates by E/S products, NEJ; format: biochemical, Fasciola hepatica; conditions: E/S products of NEJ; means of duplicate results
Procedure: F. hepatica metacercariae (Pfizer strain) encysted on cellophane were removed with a Pasteur pipette into 2% sodium hypochlorite, vortexed and incubated for 30 minutes at 37° C. This procedure removes the outer cyst of the metacercariae. The metacercariae, now only with the inner transparent cyst, were placed into microtitre wells with an automatic pipette using a stereomicroscope and washed in distilled water. They were then incubated in a medium prepared by mixing equal volumes of 0.05M HCl with a solution containing 1% sodium bicarbonate, 0.8% NaCl and 0.2% sodium taurocholate. After 3 hours at 37° C. 70-80% of the flukes were excysted and actively moving. The excysted juveniles were separated from the inner cysts using a 20 μl automatic pipette under a stereomicroscope.
as §4

| SMILES | inhibition of IgG cleaving activity [1] | inhibition of IgG cleaving activity [2] | viability of NEJ (NEJ) | effect on action of E/S products and Cathepsin L1 on eosinophil attachment ([3]; 5 μg/ml, with immune serum and NEJ or mature fluke E/S products or purified Cathepsin L1) | rate at which eosinophils are lost from the NEJ surface ([3]; in the presence of immune serum, FIG. 4 panel I) | Kcat (F. hepatica cathepsin L1) | Km (F. hepatica cathepsin L1) | Kcat (F. hepatica cathepsin L2) | Km (F. hepatica cathepsin L2) | Specific activity against fluorogenic substrates, Adults [4] | Specific activity against fluorogenic substrates, 3 weeks [5] | Specific activity against fluorogenic substrates, 5 weeks [6] | Specific activity against fluorogenic substrates, NEJ [7] |
| --- | --- | --- | --- | --- | --- | --- | --- | --- | --- | --- | --- | --- | --- |
| C[C@H](NC(=O)[C@H](Cc1ccccc1)NC(=O)OCc1ccccc1)C(=O)C=[N+]=[N-] [Z-phe-ala-CHN2] | completely inhibited | completely inhibited |  |  |  |  |  |  |  |  |  |  |  |
| CC(=O)N[C@@H](CC(C)C)C(=O)N[C@@H](CC(C)C)C(=O)N[C@H](C=O)CCCNC(=N)N [leupeptin] |  |  | did not affect their viability | inhibits the effect of the E/S products and Cathepsin L1 | slightly reduces |  |  |  |  |  |  |  |  |
| Cc1cc(=O)oc2cc(NC(=O)[C@H](CCCCN)NC(=O)[C@H](CC(C)C)NC(=O)[C@@H](NC(=O)OC(C)(C)C)C(C)C)ccc12 [Boc-Val-Leu-Lys-AMC] (Boc-Val-Leu-Lys-{AMC}) |  |  |  |  |  | 7.90 s⁻¹ | 34.7 µM | 3.75 s⁻¹ | 7.34 µM |  |  |  |  |
| Cc1cc(=O)oc2cc(NC(=O)[C@H](Cc3ccc(O)cc3)NC(=O)[C@@H](NC(=O)[C@H](CC(C)C)NC(=O)[C@H](CC(C)C)NC(=O)CCC(=O)O)C(C)C)ccc12 [Suc-Leu-Leu-Val-Tyr-AMC] (Suc-LLVY-{AMC}) |  |  |  |  |  | 0.01 s⁻¹ | 38.5 µM | 0.08 s⁻¹ | 23.3 µM |  |  |  |  |
| Cc1cc(=O)oc2cc(NC(=O)[C@H](CCCCN)NC(=O)[C@H](Cc3ccccc3)NC(=O)[C@H](C)NC(=O)CCC(=O)O)ccc12 [Suc-Ala-Phe-Lys-AMC] (Suc-Ala-Phe-Lys-{AMC}) |  |  |  |  |  | 0.05 s⁻¹ | 65.3 µM | 0.14 s⁻¹ | 41.1 µM |  |  |  |  |
| Cc1cc(=O)oc2cc(NC(=O)[C@H](CCCNC(=N)N)NC(=O)[C@H](Cc3ccccc3)NC(=O)OCc3ccccc3)ccc12 [Z-Phe-Arg-AMC, benzyloxycarbonyl-L-phenylalanyl-L-arginyl-7-amido-4-methyl coumarin] (Cbz-Phe-Arg-{AMC}) |  |  |  |  |  | 1.08 s⁻¹ | 14.7 µM | 0.56 s⁻¹ | 3.76 µM | 1254 μmol AMC/min/Mg | 29 μmol AMC/min/Mg | 90 μmol AMC/min/Mg | 25 μmol AMC/min/Mg |
| Cc1cc(=O)oc2cc(NC(=O)[C@H](Cc3ccc(O)cc3)NC(=O)[C@@H](NC(=O)[C@@H](N)CC(C)C)C(C)C)ccc12 [H-Leu-Val-Tyr-AMC] (H-Leu-Val-Tyr-{AMC}) |  |  |  |  |  | 0.02 s⁻¹ | 5.4 µM | 0.21 s⁻¹ | 3.75 µM |  |  |  |  |
| Cc1ccc(S(=O)(=O)NCC(=O)N2CCC[C@H]2C(=O)N[C@@H](CCCNC(=N)N)C(=O)Nc2ccc3c(C)cc(=O)oc3c2)cc1 [Tos-Gly-Pro-Arg-AMC] (Tos-Gly-Pro-Arg-{AMC}) |  |  |  |  |  | 0.03 s⁻¹ | 26 µM | 1.93 s⁻¹ | 17.1 µM |  |  |  |  |
| Cc1cc(=O)oc2cc(NC(=O)[C@H](CCCN=C(N)N)NC(=O)[C@@H](NC(=O)[C@H](Cc3ccccc3)NC(=O)c3ccccc3)C(C)C)ccc12 [Bz-Phe-Val-Arg-AMC] (Bz-Phe-Val-Arg-{AMC}) |  |  |  |  |  | 0.03 s⁻¹ | 9.25 µM | 0.06 s⁻¹ | 1.2 µM |  |  |  |  |
| Cc1cc(=O)oc2cc(NC(=O)[C@H](CCCN=C(N)N)NC(=O)[C@H](CCCN=C(N)N)NC(=O)OCc3ccccc3)ccc12 [Z-Arg-Arg-AMC] (Cbz-Arg-Arg-{AMC}) |  |  |  |  |  | 0.002 s⁻¹ | 65.6 µM | 0.02 s⁻¹ | 9.07 µM | 21 μmol AMC/min/Mg | 0 μmol AMC/min/Mg | 2 μmol AMC/min/Mg | 0 μmol AMC/min/Mg |
| Cc1cc(=O)oc2cc(NC(=O)[C@H](CCCN=C(N)N)NC(=O)OCc3ccccc3)ccc12 [Z-Arg-AMC] |  |  |  |  |  | 0.04 s⁻¹ | 20.4 µM | 0.09 s⁻¹ | 14.1 µM | 63 μmol AMC/min/Mg | 3 μmol AMC/min/Mg | 5 μmol AMC/min/Mg | 1 μmol AMC/min/Mg |
| Cc1cc(=O)oc2cc(NC(=O)[C@H](CCCN=C(N)N)NC(=O)[C@@H]3CCCN3C(=O)[C@@H](NC(=O)OC(C)(C)C)C(C)C)ccc12 [Boc-Val-Pro-Arg-AMC] (Boc-Val-Pro-Arg-{AMC}) |  |  |  |  |  | 0.02 s⁻¹ | 43.6 µM | 1.19 s⁻¹ | 24.8 µM |  |  |  |  |
| Cc1ccc(S(=O)(=O)NCC(=O)N2CCC[C@H]2C(=O)N[C@@H](CCCCN)C(=O)Nc2ccc3c(C)cc(=O)oc3c2)cc1 [Tos-Gly-Pro-Lys-AMC] (Tos-Gly-Pro-Lys-{AMC}) |  |  |  |  |  | 0.03 s⁻¹ | 107 µM | 1.37 s⁻¹ | 35.5 µM |  |  |  |  |
